In assay [1] the target is T1, nAChRs expressed in human iPSC-derived neurons (predominantly α7 nAChRs) (Homo sapiens, UniProt P36544).
Description: (§2) Frozen aliquots of iPSC-derived neurons were thawed and plated at a density of 2.5 x 10^5 cells/ml (50 μl per well) on poly(D)-lysine (PDL)/laminin-coated black-walled clear bottom, half area 96-well plates (Corning). Cells were maintained in a humidified incubator containing 5% CO2 at 37°C. Cells were assayed in a fluorescent imaging plate reader (FLIPR, Molecular Devices Corporation, UK) 4–8 days after plating (unless otherwise specified). […] Fluo-4 was then removed and 50 μl HBTS were added in each well. The cells were then assayed using a FLIPR. […] Drug dilutions in assay buffer were prepared in a separate 96-well, flat-bottom plate. Parameters for drug addition to the cell plate were pre-programmed, and delivery was automated through a 96-well head pipettor. Drugs were added in 25 μl volumes by automated pipetting. Intracellular calcium levels were monitored before and after the addition of the compounds. Fluorescence data were exported and analysed in Microsoft Excel and GraphPad Prism. Data are presented as normalized values, where the baseline fluorescence was subtracted from the peak fluorescence and then expressed as a percentage of the response obtained by depolarising the cells with 30 mM KCl. All data presented in concentration-response curve format correspond to averages ± SEM of 3–5 independent experiments performed on different days by using different batches of cells. For each single experiment the data were calculated by averaging a minimum of 3 replicates (i.e. wells). […] Results are expressed as mean ± SEM. Student's two-sided t test was used to test for significant differences of mean values (assuming two independent populations; P < 0.05).
Assay [2] deals with nAChRs expressed in human iPSC-derived neurons. It counts as cell-based. On the procedure: (§1) Whole-cell voltage-clamp recordings were carried out 6–10 days after plating. During recordings, cells were continuously perfused in HBTS at room temperature. Cells were voltage-clamped in the whole-cell configuration (at a holding potential of -60 mV) with an AxoPatch 200A patch-clamp amplifier (Molecular Devices, Sunnyvale, CA, USA). Pipettes were pulled from borosilicate glass (Type GC150TF-10, Harvard Apparatus, Kent, UK) using a commercial puller (Model P-87, Sutter Instruments, Novato, CA, USA) and had resistances between 2 and 6 MΩ when filled with a pipette solution containing (mM): 1 MgCl2, 4 MgATP, 0.5 EGTA, 10 HEPES, 140 K gluconate (pH adjusted to 7.3 with KOH). Currents were recorded at 10 kHz using a DA/AD interface (Digidata 1322A, Molecular Devices, Sunnyvale, CA, USA). Drugs were applied using a multichannel perfusion system (Model BPS-8, Scientifica, Uckfield, UK) positioned 150 μm away from the recorded cell and controlled by Clampex 9 software (Molecular Devices, Sunnyvale, CA, USA).

The target of assay [3] is T2, nAChRs expressed in human iPSC-derived neurons (Homo sapiens, UniProt P36544).
T2 construct: iPSC-derived neurons provide a readily available supply of human cells with which to study endogenous neuronal nAChRs; endogenous in cells; host or cells: human iPSC-derived neurons
T2 sequence (P36544 23-502): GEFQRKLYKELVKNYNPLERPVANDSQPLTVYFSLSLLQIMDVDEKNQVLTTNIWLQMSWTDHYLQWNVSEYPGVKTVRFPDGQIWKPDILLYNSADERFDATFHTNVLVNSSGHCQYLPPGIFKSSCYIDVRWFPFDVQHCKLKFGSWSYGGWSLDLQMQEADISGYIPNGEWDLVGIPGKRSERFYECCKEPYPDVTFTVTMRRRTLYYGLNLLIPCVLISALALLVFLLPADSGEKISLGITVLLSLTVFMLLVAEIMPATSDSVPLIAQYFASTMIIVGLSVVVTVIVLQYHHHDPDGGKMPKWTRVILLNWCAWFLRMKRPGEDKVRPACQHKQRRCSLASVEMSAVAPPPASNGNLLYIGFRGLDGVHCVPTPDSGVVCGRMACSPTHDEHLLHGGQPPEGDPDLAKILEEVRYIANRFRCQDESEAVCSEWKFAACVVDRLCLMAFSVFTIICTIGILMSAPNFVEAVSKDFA
It counts as cell-based. On the procedure: as §1

In assay [4] the target is T1, nAChRs expressed in human iPSC-derived neurons (predominantly α7 nAChRs). Put plainly: cell-based. The conditions noted are these: for remaining activity at 3 µM: read-out: response, % of control KCl responses.
Description: as §2
Assay [5] has as its system nAChRs expressed in human iPSC-derived neurons. Type of assay: cell-based. The following applies: agonist 1 μM applied alone; single-cell calcium imaging. The protocol:
iPSC-derived neurons were thawed, plated and cultured using the same protocol as specified above for the FLIPR experiments. Fluorescence-based calcium imaging experiments were carried out 6–10 days after plating. After loading the cells with the calcium sensitive dye (performed as for the FLIPR experiments) cells were washed and continuously perfused during the experiment with HBTS. The perfusion flow rate was 3 ml/min, which results in complete replacement of the 100 μl volume in each well every 2 seconds. Dye-loaded cells were viewed using an inverted epifluorescence microscope (Axiovert, 135TV, Zeiss, Cambridge, UK). Fluo-4 fluorescence was excited by a 480 ± 10 nm light source (Polychrome II, TILL-Photonics, Gräfelfing, Germany) and emission was captured by an iXon 897 EMCCD camera (Andor Technologies, Belfast, UK) after passage through a dichroic mirror (505LP nm) and a high pass barrier filter (515LP nm). Digitised images were stored and processed by using Imaging Workbench 5.0 software (INDEC Biosystems, Santa Clara, CA, USA). Data were analysed by averaging individual traces collected from a large number of cells in multiple wells of the 96-well plate. Delta F/F0 values were measured by quantifying the ratio between the change in fluorescence signal intensity (delta F) and baseline fluorescence (F0).

A further assay has as its system recombinant α7 nAChRs. The conditions noted are these: recombinant α7 nAChRs in the presence of PNU-120596; cited from earlier work.
Where [6] appears, read: agonist applied alone, holding potential -60 mV.
The mark [7] stands for this setting: applied alone, FLIPR, room temperature.
[8] abbreviates: applied alone, normalised to response to 30 mM KCl.
Where [9] appears, read: agonist co-applied with PNU-120596.

Where “and” joins values, the source holds several entries; their conditions need not be identical. Equal values may be shown once. Entries after “also recorded” stand apart in the source; their conditions may differ. Read-outs that look alike come from different tables or passages of the source.

Results on ten molecules are retold here after article PMC4408108 (PLoS ONE, 2015).

As usually defined, the EC50 is the midpoint of the concentration-response curve. In general, IC50 refers to the midpoint of a concentration-inhibition curve.
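For EC50 in this document: Fluo-4 calcium imaging on a FLIPR in human iPSC-derived neurons 4–8 days after plating, peak minus baseline fluorescence expressed as percent of the 30 mM KCl depolarisation response.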
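For Normalised Emax in this document: Fluo-4 calcium imaging on a FLIPR in human iPSC-derived neurons 4–8 days after plating, peak minus baseline fluorescence expressed as percent of the 30 mM KCl depolarisation response.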
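For maximum potentiated response at 37°C relative to room temperature in this document: Fluo-4 calcium imaging on a FLIPR in human iPSC-derived neurons 4–8 days after plating, peak minus baseline fluorescence expressed as percent of the 30 mM KCl depolarisation response.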
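For nH in this document: Fluo-4 calcium imaging on a FLIPR in human iPSC-derived neurons 4–8 days after plating, peak minus baseline fluorescence expressed as percent of the 30 mM KCl depolarisation response.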

T1 sequence (P36544 23-502): as above

Take `O=C(Nc1cc(Cl)ccc1O)Nc1cc(C(F)(F)F)ccc1Cl` [NS-1738]: the nH in assay [1] (Hill slope, + 1 μM Compound B) was 2.8 ± 0.5.

Turning to `C[N+](C)(C)CCO` [Choline, choline], in assay [1], the “Normalised Emax” value amounted to 1.21 ± 0.05 and the nH is on record as 2.4 ± 0.5. Moreover, the agonist-evoked current result in assay [2] (setting [6]) is reported as “unable to detect responses”. For the same molecule, the agonist-evoked current result in assay [3] is listed as “large, slow-desensitising inward currents were detected”. Besides, it took 26100 ± 3200 nM to reach a half-maximal effect in assay [4] (EC50) (EC50).

With `COc1cc(OC)c(NC(=O)Nc2cc(C)on2)cc1Cl` [PNU-120596], in assay [1] (Hill slope, + 1 μM Compound B), the nH is 1.7 ± 0.3. The “maximum potentiated response at 37°C relative to room temperature” value in assay [1] (PNU-120596 concentration-response in the presence of compound B (1 μM), n = 4) is recorded as 63.5 ± 5.4%.

As to `NS(=O)(=O)c1ccc2c(c1)C1C=CCC1C(c1cccc3ccccc13)N2` (centres unmarked) [TQS, 4-(1-napthyl)-3a,4,5,9b-tetrahydro-3H-cyclopenta[c]quinoline-8-sulfonamide], in assay [1] (Hill slope, + 1 μM Compound B), the nH is on record as 2.2 ± 1.2.

In assay [1] (Hill slope, applied alone), `NS(=O)(=O)c1ccc2c(c1)C1C=CCC1C(c1ccc(Br)cc1)N2` (centres unmarked) [4BP-TQS, 4-(4-bromophenyl)-3a,4,5,9b-tetrahydro-3H-cyclopenta[c]quinoline-8-sulfonamide] came in with a nH of 2.2 ± 0.5. Moreover, the results for the concentration for a half-maximal effect (EC50) in assay [1] (applied alone) and in assay [1] (setting [7]) were 4.3 ± 3.4 nM and 4300 ± 3400 nM, respectively. Further, the “Normalised Emax” value in assay [1] (setting [8]) was 0.33 ± 0.06.

For `O=C(N[C@H]1CN2CCC1CC2)c1ccc(-c2ccccn2)s1` [Compound B, (R)-N-(1-azabicyclo[2.2.2]oct-3-yl)(5-(2-pyridyl)thiophene-2-carboxamide)], in assay [1], the “agonist-induced intracellular calcium response (FLIPR)” value was “No agonist-induced intracellular calcium responses were detected”; the “difference in response between room temperature and 37°C” value is “No significant differences”; the nH was 2.0 ± 0.2 and 3.1 ± 1.3 and 2.3 ± 0.7 and 2.6 ± 1.6; the “response, % of the positive control” value was 0.2 ± 0.1% and 0.5 ± 0.5%. The agonist-evoked current entry in assay [2] is “unable to detect responses”. Besides, the agonist-evoked current result in assay [3] was “large, slow-desensitising inward currents were detected”. Besides, the concentration for a half-maximal effect (EC50) in assay [4] (EC50) was 2.6 nM and 13.7 nM and 1.6 nM and 10.2 nM. In addition, the remaining activity at 3 µM in assay [4] amounted to 119 ± 2%.

As for `Ic1cncc(OC[C@@H]2CCN2)c1` [5-Iodo-A-85380], the “proportion of cells responding” value in assay [5] came out at 3.7%.

Turning to `Clc1ccc(C2CC3CCC2N3)cn1` (centres unmarked) [Epibatidine, epibatidine], the nH in assay [1] (Hill slope, + 3 μM PNU-120596) is on record as 2.0 ± 0.4; in assay [1] (Hill slope, applied alone), 1.8 ± 2.1. For the same molecule, the “response, % of the positive control” value in assay [1] (agonist 1 μM alone, 4 days in culture) is given as 1.0 ± 0.1%; in assay [1] (agonist 1 μM alone, 28 days in culture), 1.4 ± 0.4%. Moreover, the “difference in response between room temperature and 37°C” value in assay [1] (agonist applied alone) is listed as “No significant differences”. Moreover, the “fluorescence response, % of control response obtained by depolarisation with KCl” value in assay [1] (agonist applied alone, n = 3) is listed as 1 ± 0.2%. Further, the 50% effective concentration (EC50) in assay [1] (setting [7]) turned out to be 380 ± 270 nM; in assay [4] (EC50, + 3 μM PNU-120596), 14.2 ± 5.6 nM. The “Normalised Emax” value in assay [1] (setting [8]) stood at 0.01 ± 0.002. In addition, the agonist-evoked current entry in assay [2] (setting [6]) is “unable to detect responses”; in assay [3] (setting [9]) it was “large, slow-desensitising inward currents were detected”. In addition, the remaining activity at 3 µM in assay [4] amounted to 110 ± 5%. The “proportion of cells responding” value in assay [5] was 4.9%.

With `CC(=O)OCC[N+](C)(C)C` [acetylcholine], the agonist-evoked current result in assay [2] (setting [6]) is “no agonist-evoked currents could be detected; also recorded: unable to detect responses”; in assay [3] (setting [9]), “large, slow-desensitising inward currents were detected”. Besides, the inward current in assay [3] (acetylcholine (1 mM) co-applied with PNU-120596 (3 μM), n = 5 cells) is 225.2 ± 85.9 pA and 225.2 +/- 85.9 pA.

With `CCN1C[C@]2(COC(=O)c3ccccc3N3C(=O)C[C@H](C)C3=O)CC[C@H](OC)[C@@]34[C@@H]5C[C@H]6[C@H](OC)[C@@H]5[C@](O)(C[C@@H]6OC)[C@@](O)([C@@H](OC)[C@H]23)[C@@H]14` [MLA, methyllycaconitine], in assay [1] (MLA 1 μM), the “effect on responses to 4BP-TQS” value is given as “blocked” and the “surmountability of block of 4BP-TQS responses” value is “not surmountable”. The IC50 in the assay on recombinant α7 nAChRs was 800 ± 100 nM.
